Data reported in patent US20110269625A1, “Synergistic insecticidal mixtures” (Bayer CropScience AG, priority 2008, published 2011).

Tests used:
Format in all cases: in vivo
[1] = test system: green peach aphid (Myzus persicae); assay: Myzus persicae test (spray treatment of infested cabbage leaves)
From the text: (§1) The expected action for a given combination of two active ingredients can be calculated according to S. R. Colby, Weeds 15 (1967), 20-22) as follows:
(§2) • X is the kill rate, expressed in % of the untreated control, using the active ingredient A at an application rate of m g/ha or in a concentration of m ppm, • Y is the kill rate, expressed in % of the untreated control, using the active ingredient B at an application rate of n g/ha or in a concentration of n ppm, • E is the kill rate, expressed in % of the untreated control, using the active ingredients A and B at application rates of m and n g/ha or in a concentration of m and n ppm, then is
(§3) If the actual insecticidal kill rate is greater than that calculated, the kill rate of the combination is superadditive, i.e. there is a synergistic effect. In this case, the actually observed kill rate must be greater than the value calculated from the above formula for the expected kill rate (E).
Solvent: 7 parts by weight of dimethylformamide Emulsifier: 2 parts by weight of alkylaryl polyglycol ether
(§4) To produce an appropriate active ingredient formulation, 1 part by weight of active ingredient is mixed with the stated amounts of solvent and emulsifier, and the concentrate is diluted with emulsifier-containing water to the desired concentration.
Cabbage leaves (Brassica oleracea) severely infested by the green peach aphid (Myzus persicae) are treated by spraying with the active ingredient formulation in the desired concentration.
(§5) After the desired time, the kill rate in % is determined 100% means that all of the aphids have been killed; 0% means that none of the aphids have been killed. The kill rates determined are entered into Colby's formula.

[2] = test system: larvae of the mustard beetle (Phaedon cochleariae); assay: Phaedon cochleariae larvae test (sprayed cabbage leaves populated with larvae); details: 4 ppm, spray
From the text: as §1, §2, §3
Solvent: 7 parts by weight of dimethylformamide Emulsifier: 2 parts by weight of alkyl aryl polyglycol ether
as §4
Cabbage leaves (Brassica oleracea) are treated by spraying with the active ingredient formulation of the desired concentration and populated with larvae of the mustard beetle (Phaedon cochleariae) while the leaves are still moist.
After the desired time, the kill rate in % is determined 100% means that all beetle larvae have been killed; 0% means that none of the beetle larvae have been killed. The kill rates determined are entered into Colby's formula.

[3] = test system: cotton aphid (Aphis gossypii); assay: Aphis gossypii test (spray treatment of infested cotton plants)
From the text: as §1, §2, §3
Solvent: 7 parts by weight of dimethylformamide Emulsifier: 2 parts by weight of alkylaryl polyglycol ether […]
as §5

Structure (SMILES)	Kill rate in % after 6 days ([1]; 0.8 ppm) [%]	Kill rate in % after 6 days [2] [%]	Kill rate in % after 6 days ([3]; 0.8 ppm) [%]	Kill rate in % after 1 d ([1]; 0.8 ppm) [%]	Kill rate in % after 6 days ([3]; 0.16 ppm) [%]	Kill rate in % after 1 d ([1]; 0.16 ppm) [%]
C/C(=N\C#N)N(C)Cc1ccc(Cl)nc1 [acetamiprid]	0	0				
N#C/N=C1\SCCN1Cc1ccc(Cl)nc1 [thiacloprid]		0	25	25		
CC1(C)[C@H](C=C(Cl)Cl)[C@H]1C(=O)OCc1c(F)c(F)cc(F)c1F [transfluthrin]	0	0			0	0
